Results published in doi:10.1101/815415v1 (biorxiv, 2019).

Molecular target: xylanase from Bacillus circulans (BCX) (Niallia circulans, UniProt P09850)
Assay: NMR titration, 1H-15N HSQC 2D lineshape fit
Type: binding
Conditions: 25 mM sodium acetate, pH 5.8, 6% D2O, 20 °C; active site -1/-2 subsites

Kd: 10 mM
SMILES: OC1OC[C@@H](O[C@@H]2OC[C@@H](O)[C@H](O)[C@H]2O)[C@H](O)[C@H]1O (stereo partly shown) [X2, xylobiose]
